Results on 9 molecules are retold here after patent publication US6498156B2, “Diphenylazetidinone derivatives, process for their preparation, medicaments comprising these compounds and their use” (Aventis Pharma Deutschland GmbH, priority 2000, dated 2002).

For series [1], the system named is Cholesterol absorption (uptake of 14C-cholesterol by the liver). The series can be described thus: Cholesterol absorption test: uptake of 14C-cholesterol by the liver after peroral test meal. The class given is in vivo, NMRI mice. Particulars: dose at which the uptake of 14C-cholesterol by the liver is halved (50%) vs control group, mouse. An excerpt: Effect on Cholesterol Absorption +^3H-taurocholic Acid Excretion Using Fecal Excrement of Mice, Rats or Hamsters
NMRI mice, Wistar rats, or Golden Syrian hamsters (in groups of n=4-6) are kept in metabolic cages, where they are fed with a standard diet (Altromin, Lage (Lippe)). The afternoon prior to the administration of the radioactive tracers (^14C-cholesterol), the feed is removed and the animals are adapted to grates.
Additionally, the animals are labeled s.c. with ^3H-TCA (taurocholic acid) (for example 1 μCi/mouse up to 5 μCi/rat) 24 hours prior to the peroral administration of the test meal (^14C-cholesterol in Intralipid® 20, Pharmacia-Upjohn).
Cholesterol absorption test: 0.25 ml/mouse Intralipid ® 20 (Pharmacia-Upjohn) ((Spiked with 0.25 μCi of ^14C-cholesterol in 0.1 mg of cholesterol) are administered perorally by gavage.
Test substances were prepared separately in 0.5% methylcellulose (Sigma)/5% Solutol (BASF, Ludwigshafen) or a suitable vehicle.
The administration volume of the test substance is 0.5 ml/mouse. The test substance is administered immediately prior to the test meal (Intralipid labeled with ^14C-cholesterol) (cholesterol absorption test).
The feces are collected over a period of 24 h: fecal elimination of ^14C-cholesterol and ^3H-taurocholic acid (TCA) is determined after 24 hours.
The livers are removed and homogenized, and aliquots are incinerated in an oximate (Model 307, Packard) to determine the amount of ^14C-cholesterol which had been taken up/absorbed.
The amount of ^14C-cholesterol taken up by the liver is based on the administered dose. The ED50 values are interpolated from a dose-effect curve as the dose at of which the uptake of ^14C-cholesterol by the liver is halved (50%), based on a control group.

In a further series the test system is Caco-2 cell monolayers. The series can be described thus: Bioabsorption in the Caco cell model. It is filed as in vitro ADME. As to conditions: estimated from Caco cell model data. The text has this:
(§1) The bioabsorption of the compounds of the formula I was examined using the Caco cell model (A. R. Hilgers et al., Caco-2 cell monolayers as a model for drug transport across the intestinal mucosa, Pharm. Res. 1990, 7, 902).
(§2) From the measured data, it can be seen that the bioabsorption of the compounds of the formula I according to the invention is considerably lower than that of compounds described in the prior art (reference structure): […]

Series [2] is described as follows: Bioabsorption in the Caco cell model. The class given is in vitro ADME. Particulars: human, Caco-2; Caco cell model; read-out: Apparent partition coefficient Papp (according to Lit. Hilgers).
From the text: as §1, §2

Turning to `CCCCC1(CC)CS(=O)(=O)c2ccc(N(C)C)cc2C(c2cccc(NC(=O)CCCCCCCNCc3ccc(C4C(CCC(O)c5ccc(F)cc5)C(=O)N4c4ccc(F)cc4)cc3)c2)C1O.O=C(O)C(F)(F)F` (stereo not drawn) [XXV], in series [1], the “ED50 (liver)” value amounted to 0.01 mg/mouse.

For `CCCCC1(CC)CS(=O)(=O)c2ccc(N(C)C)cc2C(c2cccc(NC(=O)COCCOCCOCC(=O)NCc3ccc(N4C(=O)C(CCC(O)c5ccc(F)cc5)C4c4ccc(OC)cc4)cc3)c2)C1O` (stereo not drawn) [XXXI, N-[3-(3-Butyl-7-dimethylamino-3-ethyl-4-hydroxy-1,1-dioxo-2,3,4,5-tetrahydro-1H-benzo[b]thiepin-5-yl)phenyl]-2-{2-[2-({4-[3-[3-(4-fluorophenyl)-3-hydroxypropyl]-2-(4-methoxyphenyl)-4-oxoazetidin-1-yl]benzylcarbamoyl}methoxy)ethoxy]ethoxy}acetamide], the “ED50 (liver)” value in series [1] is recorded as 0.1 mg/mouse. `CCCCC1(CC)CS(=O)(=O)c2ccc(N(C)C)cc2C(c2cccc(NC(=O)CCCCC(=O)NCc3ccc(C4C(CCC(O)c5ccccc5)C(=O)N4c4ccc(F)cc4)cc3)c2)C1O` (stereo not drawn) [II, N-[3-(3-Butyl-7-dimethylamino-3-ethyl-4-hydroxy-1,1-dioxo-2,3,4,5-tetrahydro-1H-benzo[b]thiepin-5-yl)phenyl]-N′-4-[1-(4-fluorophenyl)-3-(3-hydroxy-3-phenylpropyl)-4-oxoazetidin-2-yl]benzyl-hexanediamide]: the melting point was 150 °C. The “ED50 (liver)” value in series [1] is given as 0.01 mg/mouse. Take `CCCCC1(CC)CS(=O)(=O)c2ccc(N(C)C)cc2C(c2cccc(NC(=O)COCCOCC(=O)NCc3ccc(N4C(=O)C(CCC(O)c5ccc(F)cc5)C4c4ccc(OC)cc4)cc3)c2)C1O` (stereo not drawn) [XXX, 2-(2-{[3-(3-Butyl-7-dimethylamino-3-ethyl-4-hydroxy-1,1-dioxo-2,3,4,5-tetrahydro-1H-benzo[b]thiepin-5-yl)phenylcarbamoyl]methoxy}ethoxy)-N-{4-[3-[3-(4-fluorophenyl)-3-hydroxypropyl]-2-(4-methoxyphenyl)-4-oxoazetidin-1-yl]benzyl}acetamide]: the melting point was 116 to 125 °C. For the molecule `O=C1[C@H](CC[C@H](O)c2ccc(F)cc2)[C@@H](c2ccc(O)cc2)N1c1ccc(F)cc1` [Reference structure, Ezetimibe, reference compound], the Estimated human bioabsorption in the series on Caco-2 cell monolayers is 100%. For the same molecule, the Papp in series [2] amounted to 4.88 ×10⁻⁶ cm/s. For `CCCCC1(CC)CS(=O)(=O)c2ccc(N(C)C)cc2C(c2cccc(NC(=O)CCCCC(=O)NCc3ccc(C4C(CCC(O)c5ccc(F)cc5)C(=O)N4c4ccc(F)cc4)cc3)c2)C1O` (stereo not drawn) [III, N-[3-(3-Butyl-7-dimethylamino-3-ethyl-4-hydroxy-1,1-dioxo-2,3,4,5-tetrahydro-1H-benzo[b]thiepin-5-yl)phenyl]-N′-4-{1-(4-fluorophenyl)-3-[3-(4-fluorophenyl)-3-hydroxypropyl]-4-oxo-azetidin-2-yl}benzyl-hexanediamide], in series [1], the “ED50 (liver)” value turned out to be 0.03 mg/mouse. `CCCCC1(CC)CS(=O)(=O)c2ccc(N(C)C)cc2C(c2cccc(NC(=O)COCCOCCOCC(=O)NCc3ccc(C4C(CCC(O)c5ccccc5)C(=O)N4c4ccc(F)cc4)cc3)c2)C1O` (stereo not drawn) [VI, [2-(2-{[3-(3-Butyl-7-dimethylamino-3-ethyl-4-hydroxy-1,1-dioxo-2,3,4,5-tetrahydro-1H-benzo[b]thiepin-5-yl)-phenylcarbamoyl]methoxy}ethoxy)ethoxy]-[N-{4-[1-(4-fluorophenyl)-3-(3-hydroxy-3-phenylpropyl)-4-oxoazetidin-2-yl]benzyl}]acetamide] returned a melting point of 120 °C. As for `CCCCC1(CC)CS(=O)(=O)c2ccc(N(C)C)cc2C(c2cccc(NC(=O)CCCCCCCCCCC(=O)NCc3cccc(C4C(CCC(O)c5ccc(F)cc5)C(=O)N4c4ccc(F)cc4)c3)c2)[C@H]1O.O=C(O)C(F)(F)F` (stereo in doubt) [Example XII, (3-Butyl-3-ethyl-5-{3-[11-(3-{1-(4-fluorophenyl)-3-[3-(4-fluorophenyl)-3-hydroxypropyl]-4-oxoazetidin-2-yl}benzylcarbamoyl)undecanoylamino]phenyl}-4-hydroxy-1,1-dioxo-2,3,4,5-tetrahydro-1H-benzo[b]thiepin-7-yl)dimethylammonium Trifluoro-acetate], the Estimated human bioabsorption with Caco-2 cell monolayers is on record as below 1%. Moreover, in series [2], the Papp was 0.00367 ×10⁻⁶ cm/s. For the molecule `CCCCC1(CC)CS(=O)(=O)c2ccc(N(C)C)cc2C(c2cccc(NC(=O)COCCOCC(=O)NCc3cccc(C4C(CCC(O)c5ccc(F)cc5)C(=O)N4c4ccc(F)cc4)c3)c2)C1O.O=C(O)C(F)(F)F` (stereo not drawn) [VIII, (3-Butyl-3-ethyl-5-[3-(2-{2-[(3-{1-(4-fluorophenyl)-3-[3-(4-fluorophenyl)-3-hydroxypropyl]-4-oxoazetidin-2-yl}benzylcarbamoyl)methoxy]ethoxy}acetylamino)phenyl]-4-hydroxy-1,1-dioxo-2,3,4,5-tetrahydro-1H-benzo[b]thiepin-7-yl)dimethylammonium Trifluoroacetate], the “ED50 (liver)” value in series [1] is 0.003 mg/mouse.

By melting point is commonly meant the temperature of the solid-liquid transition. For orientation: Papp means a coefficient for how fast a substance crosses the barrier.
